Results reported in patent US11976057B2, “MrgX2 antagonists” (GlaxoSmithKline Intellectual Property Development Limited, priority 2020, dated 2024).

Molecular target: T1, human MRGPRX2 (Homo sapiens, UniProt Q96LB1)
T1 sequence (Q96LB1 1-330): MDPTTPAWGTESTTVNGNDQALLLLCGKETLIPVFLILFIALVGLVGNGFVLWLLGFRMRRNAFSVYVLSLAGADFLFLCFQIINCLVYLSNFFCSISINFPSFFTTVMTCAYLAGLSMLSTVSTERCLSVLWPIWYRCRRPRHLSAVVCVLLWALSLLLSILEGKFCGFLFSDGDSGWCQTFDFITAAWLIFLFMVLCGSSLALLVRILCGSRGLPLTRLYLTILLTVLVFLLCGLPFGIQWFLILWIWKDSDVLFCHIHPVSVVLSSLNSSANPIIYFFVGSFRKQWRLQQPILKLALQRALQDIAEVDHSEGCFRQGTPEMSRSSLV
Assay: Ca2+ mobilization assay (FLIPR TETRA): inhibition of Cortistatin-14 mediated MRGPRX2 activation

Structure (SMILES) | IC50
C[C@@H](C(=O)Nc1ccc(Oc2ncc(F)cc2F)cn1)[C@H]1CCC[C@@H](c2cc[n+]([O-])cc2)C1 [Example 290, 4-((1R,3S)-3-((R)-1-((5-((3,5-difluoropyridin-2-yl)oxy)pyridin-2-yl)amino)-1-oxopropan-2-yl)cyclohexyl)pyridine 1-oxide] | 0.01 to 0.1 µM
CC(C(=O)Nc1ccc(OCC2CC2)cn1)N1CC(c2ccc(=O)[nH]c2)C(F)(F)C1 (stereo not drawn) [Example 164, N-(5-(cyclopropylmethoxy)pyridin-2-yl)-2-(3,3-difluoro-4-(6-oxo-1,6-dihydropyridin-3-yl)pyrrolidin-1-yl)propanamide] | 0.1 to 3.16 µM
C[C@@H](C(=O)Nc1ccc(Oc2ccc(F)cc2)cn1)N1CCC(F)(F)[C@@H](c2cc[n+]([O-])cc2)C1 [Example 114, 4-((S)-4,4-difluoro-1-((S)-1-((5-(4-fluorophenoxy)pyridin-2-yl)amino)-1-oxopropan-2-yl)piperidin-3-yl)pyridine 1-oxide] | ≤ 0.01 µM
CC(C(=O)Nc1ccc(OCC2CC2(F)F)cn1)N1CCC(F)(F)[C@@H](c2ccc(=O)[nH]c2)C1 (stereo partly drawn) [Example 36, 2-((S)-4,4-difluoro-3-(6-oxo-1,6-dihydropyridin-3-yl)piperidin-1-yl)-N-(5-((2,2-difluorocyclo-propyl)methoxy)pyridin-2-yl)propanamide] | 0.1 to 3.16 µM
C[C@@H](C(=O)Nc1ccc(Cl)cn1)N1CCC[C@@H](c2c[nH]c(=O)c(C3CC3)c2)C1 (single isomer, unassigned) [Example 179] | 0.1 to 3.16 µM
C[C@@H](C(=O)Nc1ccc(Oc2ccc(F)cc2)cn1)N1CCC(F)(F)[C@@H](c2c[nH]c(=O)c(CS(C)(=O)=O)c2)C1 [Example 214, (S)-2-((S)-4,4-difluoro-3-(5-((methylsulfonyl)methyl)-6-oxo-1,6-dihydropyridin-3-yl)piperidin-1-yl)-N-(5-(4-fluorophenoxy)pyridin-2-yl)propanamide] | ≤ 0.01 µM
CC(C(=O)Nc1ccc(OCC2CCC2)cn1)N1CCC(F)(F)[C@@H](c2ccc(=O)[nH]c2)C1 (stereo partly drawn) [Example 30, N-(5-(cyclobutyl-methoxy)pyridin-2-yl)-2-((S)-4,4-difluoro-3-(6-oxo-1,6-dihydropyridin-3-yl)piperidin-1-yl)propanamide] | 0.1 to 3.16 µM
C[C@@H](C(=O)Nc1ccc2oc(C3CC3)nc2n1)N1CCC(F)(F)[C@@H](c2ccc(=O)[nH]c2)C1 [Example 17, (S)-N-(2-cyclopropyl-oxazolo[4,5-b]pyridin-5-yl)-2-((S)-4,4-difluoro-3-(6-oxo-1,6-dihydropyridin-3-yl)piperidin-1-yl)propanamide] | 0.1 to 3.16 µM
C[C@@H](C(=O)Nc1cnc(Oc2cc(F)c(F)cc2F)cn1)N1CCC(F)(F)[C@@H](c2cc[n+]([O-])cc2)C1 [Example 120, 4-((S)-4,4-difluoro-1-((S)-1-oxo-1-((5-(2,4,5-trifluorophenoxy)pyrazin-2-yl)amino)propan-2-yl)piperidin-3-yl)pyridine 1-oxide] | ≤ 0.01 µM
C[C@@H](C(=O)Nc1ccc(Oc2ncc(F)cc2F)cn1)[C@H]1CCC(F)(F)[C@@H](c2cc[n+]([O-])cc2)C1 [Example 293, 4-((1R,5S)-5-((R)-1-((5-((3,5-difluoropyridin-2-yl)oxy)pyridin-2-yl)amino)-1-oxopropan-2-yl)-2,2-difluorocyclohexyl)pyridine 1-oxide] | ≤ 0.01 µM
CC(C(=O)Nc1ccc(Oc2ccc(F)cc2)cn1)N1CCC(F)(F)C(c2cc[n+]([O-])c(C(O)C(F)(F)F)c2)C1 (stereo not drawn) [Example 257] | 0.01 to 0.1 µM
CC(C(=O)Nc1ccc(CC2CCCCC2)cn1)N1CCC(F)(F)[C@@H](c2ccc(=O)[nH]c2)C1 (stereo partly drawn) [Example 27, N-(5-(cyclohexyl-methyl)pyridin-2-yl)-2-((S)-4,4-difluoro-3-(6-oxo-1,6-dihydropyridin-3-yl)piperidin-1-yl)propanamide] | 0.1 to 3.16 µM
CC(C(=O)Nc1ccc(Oc2ccc(F)cc2F)cn1)N1CCC(F)(F)C(c2ccnc(CN)c2)C1 (mixture of isomers) [Example 264, 2-(3-(2-(aminomethyl)pyridin-4-yl)-4,4-difluoropiperidin-1-yl)-N-(5-(2,4-difluorophenoxy)pyridin-2-yl)propanamide] | ≤ 0.01 µM
C[C@@H](C(=O)Nc1ccc(F)cn1)N1CCC(F)(F)[C@@H](c2c[nH]c(=O)cn2)C1 [Example 135, (S)-2-((R)-4,4-difluoro-3-(5-oxo-4,5-dihydropyrazin-2-yl)piperidin-1-yl)-N-(5-fluoropyridin-2-yl)propanamide] | 0.01 to 0.1 µM
C[C@@H](C(=O)Nc1ccc(/C=C\C2CC2)cn1)N1CCC(F)(F)[C@@H](c2ccc(=O)[nH]c2)C1 [Example 80, (S)-N-(5-((Z)-2-cyclopropylvinyl)pyridin-2-yl)-2-((S)-4,4-difluoro-3-(6-oxo-1,6-dihydropyridin-3-yl)piperidin-1-yl)propanamide] | 0.01 to 0.1 µM
C[C@@H](C(=O)Nc1ccc(Oc2ccc(F)cc2F)cn1)N1CCC(F)(F)[C@@H](c2c[nH]c(=O)c(CS(C)(=O)=O)c2)C1 [Example 216, (S)-2-((S)-4,4-difluoro-3-(5-((methylsulfonyl)methyl)-6-oxo-1,6-dihydropyridin-3-yl)piperidin-1-yl)-N-(5-(2,4-difluorophenoxy)pyridin-2-yl)propanamide] | ≤ 0.01 µM
Cc1cc([C@@H]2CN([C@H](C)C(=O)Nc3ccc(Oc4ccc(F)cc4)cn3)CCC2(F)F)cc[n+]1[O-] (racemic) [Example 218, 4-((R)-4,4-difluoro-1-((R)-1-((5-(4-fluorophenoxy)pyridin-2-yl)amino)-1-oxopropan-2-yl)piperidin-3-yl)-2-methylpyridine 1-oxide and 4-((S)-4,4-difluoro-1-((S)-1-((5-(4-fluorophenoxy)pyridin-2-yl)amino)-1-oxopropan-2-yl)piperidin-3-yl)-2-methylpyridine 1-oxide] | 0.01 to 0.1 µM
CC(C(=O)Nc1cc2ccn(CC3CC3)c2cn1)N1CCC(F)(F)[C@@H](c2ccc(=O)[nH]c2)C1 (stereo partly drawn) [Example 51, N-(1-(cyclopropyl-methyl)-1H-pyrrolo[2,3-c]pyridin-5-yl)-2-((S)-4,4-difluoro-3-(6-oxo-1,6-dihydropyridin-3-yl)piperidin-1-yl)propanamide] | 0.1 to 3.16 µM
C[C@@H](C(=O)Nc1ccc(Oc2ccc(F)cc2F)cn1)N1CCC(F)(F)C(c2cncc(C(O)C(F)(F)F)c2)C1 (mixture of isomers) [Example 265, (2S)-2-(4,4-difluoro-3-(5-(2,2,2-trifluoro-1-hydroxyethyl)pyridin-3-yl)piperidin-1-yl)-N-(5-(2,4-difluorophenoxy)pyridin-2-yl)propanamide] | ≤ 0.01 µM
C[C@@H](C(=O)Nc1cnc(Oc2ccc(F)cc2)cn1)[C@H]1CCC(F)(F)[C@@H](c2cc[n+]([O-])cc2)C1 [Example 292, 4-((1R,5S)-2,2-difluoro-5-((R)-1-((5-(4-fluorophenoxy)pyrazin-2-yl)amino)-1-oxopropan-2-yl)cyclohexyl)pyridine 1-oxide] | 0.01 to 0.1 µM
C[C@@H](C(=O)Nc1cnc(Oc2c(F)cc(F)cc2F)cn1)N1CCC(F)(F)[C@@H](c2cc[n+]([O-])cc2)C1 [Example 119, 4-((S)-4,4-difluoro-1-((S)-1-oxo-1-((5-(2,4,6-trifluorophenoxy)pyrazin-2-yl)amino)propan-2-yl)piperidin-3-yl)pyridine 1-oxide] | ≤ 0.01 µM
C[C@@H](C(=O)Nc1ccc(Oc2ccc(F)cc2)cn1)N1CCC(F)(F)[C@@H](c2ccc(=O)[nH]c2)C1 [Example 5, (S)-2-((S)-4,4-difluoro-3-(6-oxo-1,6-dihydropyridin-3-yl)piperidin-1-yl)-N-(5-(4-fluorophenoxy)pyridin-2-yl)propanamide] | ≤ 0.01 µM
CC(C(=O)Nc1ccc(Oc2ncc(F)cc2Cl)cn1)N1CCC(F)(F)[C@@H](c2ccc(=O)[nH]c2)C1 (stereo partly drawn) [Example 90, N-(5-((3-chloro-5-fluoropyridin-2-yl)oxy)pyridin-2-yl)-2-((S)-4,4-difluoro-3-(6-oxo-1,6-dihydropyridin-3-yl)piperidin-1-yl)propanamide] | ≤ 0.01 µM
CC(C(=O)Nc1ccc(F)cn1)N1CCC(F)(F)C(c2c[nH]c(=O)c(C#N)c2)C1 (stereo not drawn) [Example 249, 2-(3-(5-cyano-6-oxo-1,6-dihydropyridin-3-yl)-4,4-difluoropiperidin-1-yl)-N-(5-fluoropyridin-2-yl)propanamide] | 0.1 to 3.16 µM
C[C@@H](C(=O)Nc1ccc(F)cn1)N1CCC(F)(F)[C@@H](c2c[nH]c(=O)c(CN)c2)C1 (single isomer, unassigned) [Example 201] | 0.1 to 3.16 µM
C[C@@H](C(=O)Nc1ccc(OCC2CC2)cn1)[C@H]1CCC(F)(F)[C@@H](c2ccc(=O)[nH]c2)C1 (single isomer, unassigned) [Example 275] | ≤ 0.01 µM
C[C@H]1C[C@@H](c2ccc(=O)[nH]c2)CN([C@@H](C)C(=O)Nc2ccc(Cl)cn2)C1 [Example 172] | 0.1 to 3.16 µM
C[C@@H](C(=O)Nc1ccc(OCC2CC2)nn1)N1CCC(F)(F)C(c2c[nH]c(=O)c(Br)c2)C1 (stereo partly drawn) [Example 221, (2S)-2-(3-(5-bromo-6-oxo-1,6-dihydropyridin-3-yl)-4,4-difluoropiperidin-1-yl)-N-(6-(cyclopropylmethoxy)pyridazin-3-yl)propanamide] | 0.01 to 0.1 µM
C[C@@H](C(=O)Nc1ccc(-c2ccccc2)cn1)N1CCC(F)(F)[C@@H](c2ccc(=O)[nH]c2)C1 [Example 23, (S)-2-((S)-4,4-difluoro-3-(6-oxo-1,6-dihydropyridin-3-yl)piperidin-1-yl)-N-(5-phenylpyridin-2-yl)propanamide] | 0.1 to 3.16 µM
C[C@@H](C(=O)Nc1ccc(Oc2ncc(F)cc2F)cn1)N1CCC(F)(F)[C@@H](c2cc[n+]([O-])cc2)C1 [Example 116] | 0.01 to 0.1 µM
